IC50 data for 24 molecules are collected here from patent US20200069691A1, “HETEROCYCLIC COMPOUNDS AS HIV PROTEASE INHIBITORS” (Merck Sharp & Dohme Corp., priority 2016, published 2020).

pIC50: −log10 of the molar value.

This test concerns the target T1, wild-type HIV-1 protease (Human immunodeficiency virus type 1 group M subtype B, UniProt P04585).
T1 construct: Escherichia coli expressed wild-type HIV-1 protease protein
As to the kind of experiment: Assay for Inhibition of Microbial Expressed HIV Protease (peptide substrate cleavage, LC-MS/MS readout). Type of test: biochemical. Particulars: E. coli expressed wild-type HIV-1 protease, mean of at least two independent experiments, read-out: HIV Pr Enzyme HIV1 PR IC50. The procedure, abridged:
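E. coli-expressed wild-type HIV-1 protease ([…]) was preincubated with inhibitor 30 min at room temperature in pH 5.5 acetate buffer (100 mM NaCl, 0.1% BSA). Then 400 μM octapeptide substrate was added and reacted 1 h at 30 °C; inhibition came from LC-MS/MS product peak areas, mean of ≥2 experiments.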
In the case of `N=C1NC(c2ccccc2)(c2ccccc2)C(=O)N1Cc1cc(C(=O)N2Cc3cncnc3C2)ccn1` [Compound 401, 3-{[4-(5,7-dihydro-6H-pyrrolo[3,4-d]pyrimidin-6-ylcarbonyl)pyridin-2-yl]methyl}-2-imino-5,5-diphenylimidazolidin-4-one], the pIC50 (as a rule, the negative decadic logarithm of the IC50, by convention in mol/L) was 7.50.

Turning to `N=C1NC(c2ccccc2)(c2ccccc2)C(=O)N1Cc1ccc(C(F)(F)F)c(C(=O)N2Cc3nccnc3C2)c1` [Compound 143, 3-[3-(5,7-dihydro-6H-pyrrolo[3,4-b]pyrazin-6-ylcarbonyl)-4-(trifluoromethyl)benzyl]-2-imino-5,5-diphenylimidazolidin-4-one], the pIC50 is 8.46.

Turning to `N=C1N[C@](CCCC(F)(F)F)(c2ccc(F)cc2)C(=O)N1Cc1ccc(C(F)(F)F)c(C(=O)N2Cc3cnc(-c4cnc5[nH]ccc5c4)nc3C2)c1` [Compound 39, (5R)-5-(4-fluorophenyl)-2-imino-3-[3-{[2-(1H-pyrrolo[2,3-b]pyridin-5-yl)-5,7-dihydro-6H-pyrrolo[3,4-d]pyrimidin-6-yl]carbonyl}-4-(trifluoromethyl)benzyl]-5-(4,4,4-trifluorobutyl)imidazolidin-4-one], the pIC50 is 8.39.

As for `COc1ncc2c(n1)CN(C(=O)c1cccc(CN3C(=N)NC(c4ccc(F)cc4)(c4ccc(F)cc4)C3=O)c1)C2` [Compound 205, 5,5-bis(4-fluorophenyl)-2-imino-3-{3-[(2-methoxy-5,7-dihydro-6H-pyrrolo[3,4-d]pyrimidin-6-yl)carbonyl]benzyl} imidazolidin-4-one], the pIC50 is 8.12.

`N=C1NC(c2ccc(F)cc2)(c2ccc(F)cc2)C(=O)N1Cc1cccc(C(=O)N2CCC(n3c(=O)[nH]c4nc(F)ccc43)CC2)c1` [Compound 316, 1-{1-[(3-{[4,4-bis(4-fluorophenyl)-2-imino-5-oxoimidazolidin-1-yl]methyl}phenyl)carbonyl]piperidin-4-yl}-5-fluoro-1,3-dihydro-2H-imidazo[4,5-b]pyridin-2-one]: the negative logarithm of the IC50 (pIC50) is 7.28.

For `N=C1N[C@](CCCC(F)(F)F)(c2ccc(F)cc2)C(=O)N1Cc1ccc(C(F)(F)F)c(C(=O)N2Cc3cnc(-c4cccc(C(=O)N5CCSCC5)c4)nc3C2)c1` [Compound 67, (5R)-5-(4-fluorophenyl)-2-imino-3-[3-({2-[3-(thiomorpholin-4-ylcarbonyl)phenyl]-5,7-dihydro-6H-pyrrolo[3,4-d]pyrimidin-6-yl}carbonyl)-4-(trifluoromethyl)-benzyl]-5-(4,4,4-trifluorobutyl)-imidazolidin-4-one], the pIC50 is 8.10.

Take `N=C1N[C@](CCCC(F)(F)F)(c2ccc(F)cc2)C(=O)N1Cc1ccc(C(F)(F)F)c(C(=O)N2Cc3cnc(-c4ccc(F)cc4)nc3C2)c1` [Compound 97, (5R)-5-(4-fluorophenyl)-3-[3-{[2-(4-fluorophenyl)-5,7-dihydro-6H-pyrrolo[3,4-d]pyrimidin-6-yl]carbonyl}-4-(trifluoromethyl)-benzyl]-2-imino-5-(4,4,4-trifluorobutyl)imidazolidin-4-one]: the pIC50 is 7.69.

On to `N=C1NC(c2ccccc2)(c2ccccc2)C(=O)N1Cc1ccc(Cl)c(C(=O)N2Cc3cccnc3C2)c1` [Compound 368, 3-[4-chloro-3-(5,7-dihydro-6H-pyrrolo[3,4-b]pyridin-6-ylcarbonyl)benzyl]-2-imino-5,5-diphenylimidazolidin-4-one], for which the pIC50 was 8.27.

Regarding `Cn1ncc2cc(-c3ncc4c(n3)CN(C(=O)c3cc(CN5C(=N)N[C@](CCCC(F)(F)F)(c6ccc(F)cc6)C5=O)ccc3C(F)(F)F)C4)ccc21` [Compound 43, (5R)-5-(4-fluorophenyl)-2-imino-3-[3-{[2-(1-methyl-1H-indazol-5-yl)-5,7-dihydro-6H-pyrrolo[3,4-d]pyrimidin-6-yl]carbonyl}-4-(trifluoromethyl)benzyl]-5-(4,4,4-trifluorobutyl)imidazolidin-4-one], the negative logarithm of the IC50 (pIC50) is 8.35.

On to `COCC(=O)N1CCN(C(=O)c2cc(CN3C(=N)N[C@](CCCC(F)(F)F)(c4ccc(F)cc4)C3=O)ccc2C(F)(F)F)CC1` [Compound 112, (5R)-5-(4-fluorophenyl)-2-imino-3-[3-{[4-(methoxyacetyl)piperazin-1-yl]carbonyl}-4-(trifluoromethyl)benzyl]-5-(4,4,4-trifluorobutyl)imidazolidin-4-one], for which the pIC50 was 7.51.

On to `CC(C)CC1(c2ccccc2)NC(=N)N(Cc2cccc(C(=O)N3CCN(c4ncccn4)CC3)c2)C1=O` (stereo not drawn) [Compound 303, 2-imino-5-(2-methylpropyl)-5-phenyl-3-{3-[(4-pyrimidin-2-ylpiperazin-1-yl)carbonyl]benzyl} imidazolidin-4-one], for which the pIC50 is 7.34.

Take `CC(C)CC[C@]1(c2ccccc2)NC(=N)N([C@H](C)c2ccc(C(F)(F)F)c(C(=O)N3Cc4nccnc4C3)c2)C1=O` [Compound 141, (5R)-3-{(1R)-1-[3-(5,7-dihydro-6H-pyrrolo[3,4-b]pyrazin-6-ylcarbonyl)-4-(trifluoromethyl)phenyl]ethyl}-2-imino-5-(3-methylbutyl)-5-phenylimidazolidin-4-one]: the pIC50 is 8.52.

As to `N=C1NC(c2ccccc2)(c2ccccc2)C(=O)N1Cc1ccc(C(F)(F)F)c(C(=O)N2CCNC(=O)C2)c1` [Compound 160, 4-({5-[(2-imino-5-oxo-4,4-diphenylimidazolidin-1-yl)methyl]-2-(trifluoromethyl)phenyl}-carbonyl)piperazin-2-one], the pIC50 was 7.69.

`N=C1NC(c2ccc(F)cc2)(c2ccc(F)cc2)C(=O)N1Cc1cccc(C(=O)N2CCC(n3c(=O)[nH]c4ncccc43)CC2)c1` [Compound 332, 1-{1-[(3-{[4,4-bis(4-fluorophenyl)-2-imino-5-oxoimidazolidin-1-yl]methyl}phenyl)carbonyl]piperidin-4-yl}-1,3-dihydro-2H-imidazo[4,5-b]pyridin-2-one]: the pIC50 is 7.17.

Turning to `N=C1N[C@](CCCC(F)(F)F)(c2ccc(F)cc2)C(=O)N1Cc1ccc(C(F)(F)F)c(C(=O)N2CCN3C(=O)OCC3C2)c1` (stereo partly drawn) [Compound 87, 7-{[5-{[(4R)-4-(4-fluorophenyl)-2-imino-5-oxo-4-(4,4,4-trifluoro-butyl)imidazolidin-1-yl]methyl}-2-(trifluoromethyl)phenyl]carbonyl}hexahydro[1,3] oxazolo[3,4-a]pyrazin-3-one], the pIC50 is 7.83.

As to `CC(C)CC(c1ccc(C(F)(F)F)c(C(=O)N2CCn3c(nnc3C(F)(F)F)C2)c1)N1C(=N)N[C@@](C[C@@H]2CCOC2)(c2ccc(F)cc2)C1=O` (stereo partly drawn) [Compound 29, (5S)-5-(4-fluorophenyl)-2-imino-3-{3-methyl-1-[4-(trifluoromethyl)-3-{[3-(trifluoromethyl)-5,6-dihydro-[1,2,4]triazolo[4,3-a]pyrazin-7(8H)-yl]carbonyl}phenyl]butyl}-5-[(3R)-tetrahydrofuran-3-ylmethyl]-imidazolidin-4-one], the pIC50 is 8.51.

Regarding `N=C1N[C@](CCCC(F)(F)F)(c2ccc(F)cc2)C(=O)N1Cc1ccc(C(F)(F)F)c(C(=O)N2Cc3cnc(N4CCCC4)nc3C2)c1` [Compound 106, (5R)-5-(4-fluorophenyl)-2-imino-3-{3-[(2-pyrrolidin-1-yl-5,7-dihydro-6H-pyrrolo[3,4-d]pyrimidin-6-yl)carbonyl]-4-(trifluoromethyl)-benzyl}-5-(4,4,4-trifluorobutyl)-imidazolidin-4-one], the pIC50 was 7.60.

For the molecule `N=C1N[C@](CCCC(F)(F)F)(c2ccc(F)cc2)C(=O)N1Cc1ccc(C(F)(F)F)c(C(=O)N2Cc3cnc(-c4cnn(CCO)c4)nc3C2)c1` [Compound 12, (5R)-5-(4-fluorophenyl)-3-[3-({2-[1-(2-hydroxyethyl)-1H-pyrazol-4-yl]-5,7-dihydro-6H-pyrrolo[3,4-d]pyrimidin-6-yl}carbonyl)-4-(trifluoromethyl)benzyl]-2-imino-5-(4,4,4-trifluorobutyl)imidazolidin-4-one], the pIC50 was 8.88.

For the molecule `COC(=O)N1CCN(C(=O)c2cccc(CN3C(=N)NC(c4ccc(F)cc4)(c4cccc(-c5cccc(C#N)c5)c4)C3=O)c2)CC1` (stereo not drawn) [Compound 234, methyl 4-[(3-{[4-(3′-cyanobiphenyl-3-yl)-4-(4-fluorophenyl)-2-imino-5-oxoimidazolidin-1-yl]methyl}phenyl)-carbonyl]piperazine-1-carboxylate], the pIC50 was 7.85.

On to `CC(C)CC1(c2ccccc2)NC(=N)N(Cc2cccc(C(=O)N3CCN(C(=O)c4ccco4)CC3)c2)C1=O` (stereo not drawn) [Compound 268, 3-(3-{[4-(furan-2-ylcarbonyl)piperazin-1-yl]carbonyl}benzyl)-2-imino-5-(2-methylpropyl)-5-phenylimidazolidin-4-one], for which the pIC50 was 7.57.

`N=C1NC(c2ccccc2)(c2ccccc2)C(=O)N1Cc1cccc(C(=O)N2CCn3nc(C(F)(F)F)nc3C2)c1` [Compound 301, 2-imino-5,5-diphenyl-3-(3-{[2-(trifluoromethyl)-5,6-dihydro[1,2,4]triazolo[1,5-a]pyrazin-7(8H)-yl]carbonyl}benzyl) imidazolidin-4-one]: the pIC50 is 7.35.

Take `C[C@H](c1cccc(C(=O)N2Cc3cncnc3C2)c1)N1C(=N)NC(c2ccccc2)(c2ccccc2)C1=O` [Compound 228, 3-{(1R)-1-[3-(5,7-dihydro-6H-pyrrolo[3,4-d]pyrimidin-6-ylcarbonyl)phenyl]ethyl}-2-imino-5,5-diphenylimidazolidin-4-one]: the pIC50 is 7.88.

As to `CC(C)CCC1(c2ccccc2)NC(=N)N(Cc2ccc(C(F)(F)F)c(C(=O)N3CCC(C)(C)C3)c2)C1=O` (stereo not drawn) [Compound 176, 3-{3-[(3,3-dimethylpyrrolidin-1-yl)carbonyl]-4-(trifluoromethyl)benzyl}-2-imino-5-(3-methylbutyl)-5-phenylimidazolidin-4-one], the pIC50 is 7.20.

Turning to `N=C1NC(c2ccccc2)(c2ccccc2)C(=O)N1Cc1cccc(C(=O)N2CCn3c(nnc3C(F)(F)F)C2)c1` [Compound 291, 2-imino-5,5-diphenyl-3-(3-{[3-(trifluoromethyl)-5,6-dihydro[1,2,4]triazolo[4,3-a]pyrazin-7(8H)-yl]carbonyl}benzyl) imidazolidin-4-one], the pIC50 is 7.42.
